Where two headings read alike, the source gives them in different places. Numbered stars: 1 amine (or outer) side, 2 acyl side, 3 side chain; on linkers, the order of the positions; unused ones are H or OH. Bridge positions count the residues as written; N and C are the ends. Square brackets hold non-standard residues; d marks the D form. Triazole bridges read from a SMILES are 1,4-linked. Ends that are not written are not given here. Peptide text beside a SMILES is read from it. Orn(N3) = [N-]=[N+]=NCCC[C@H](N)C(=O)O; S5 = C=CCCC[C@](C)(N)C(=O)O; X1 = c1c(C[*:2])nnn1CC[*:1]; Pra = C#CC[C@H](N)C(=O)O
How the values were obtained:
IR‐A = target: T1, IR‐A (Homo sapiens, UniProt P06213); assay: Receptor-binding: competition with [125I]-monoiodotyrosyl-TyrA14-insulin for IR-A in IM-9 cell membranes; conditions: cell membranes of human IM-9 lymphocytes, each curve in duplicate, Kd from at least three binding curves, ± S.D., SD
T1 construct: for IR‐A in cell membranes of human IM‐9 lymphocytes (ATCC); host or cells: human IM-9 lymphocytes (cell membranes)
T1 sequence (P06213 28-1370 isoform P06213-2 limits assumed): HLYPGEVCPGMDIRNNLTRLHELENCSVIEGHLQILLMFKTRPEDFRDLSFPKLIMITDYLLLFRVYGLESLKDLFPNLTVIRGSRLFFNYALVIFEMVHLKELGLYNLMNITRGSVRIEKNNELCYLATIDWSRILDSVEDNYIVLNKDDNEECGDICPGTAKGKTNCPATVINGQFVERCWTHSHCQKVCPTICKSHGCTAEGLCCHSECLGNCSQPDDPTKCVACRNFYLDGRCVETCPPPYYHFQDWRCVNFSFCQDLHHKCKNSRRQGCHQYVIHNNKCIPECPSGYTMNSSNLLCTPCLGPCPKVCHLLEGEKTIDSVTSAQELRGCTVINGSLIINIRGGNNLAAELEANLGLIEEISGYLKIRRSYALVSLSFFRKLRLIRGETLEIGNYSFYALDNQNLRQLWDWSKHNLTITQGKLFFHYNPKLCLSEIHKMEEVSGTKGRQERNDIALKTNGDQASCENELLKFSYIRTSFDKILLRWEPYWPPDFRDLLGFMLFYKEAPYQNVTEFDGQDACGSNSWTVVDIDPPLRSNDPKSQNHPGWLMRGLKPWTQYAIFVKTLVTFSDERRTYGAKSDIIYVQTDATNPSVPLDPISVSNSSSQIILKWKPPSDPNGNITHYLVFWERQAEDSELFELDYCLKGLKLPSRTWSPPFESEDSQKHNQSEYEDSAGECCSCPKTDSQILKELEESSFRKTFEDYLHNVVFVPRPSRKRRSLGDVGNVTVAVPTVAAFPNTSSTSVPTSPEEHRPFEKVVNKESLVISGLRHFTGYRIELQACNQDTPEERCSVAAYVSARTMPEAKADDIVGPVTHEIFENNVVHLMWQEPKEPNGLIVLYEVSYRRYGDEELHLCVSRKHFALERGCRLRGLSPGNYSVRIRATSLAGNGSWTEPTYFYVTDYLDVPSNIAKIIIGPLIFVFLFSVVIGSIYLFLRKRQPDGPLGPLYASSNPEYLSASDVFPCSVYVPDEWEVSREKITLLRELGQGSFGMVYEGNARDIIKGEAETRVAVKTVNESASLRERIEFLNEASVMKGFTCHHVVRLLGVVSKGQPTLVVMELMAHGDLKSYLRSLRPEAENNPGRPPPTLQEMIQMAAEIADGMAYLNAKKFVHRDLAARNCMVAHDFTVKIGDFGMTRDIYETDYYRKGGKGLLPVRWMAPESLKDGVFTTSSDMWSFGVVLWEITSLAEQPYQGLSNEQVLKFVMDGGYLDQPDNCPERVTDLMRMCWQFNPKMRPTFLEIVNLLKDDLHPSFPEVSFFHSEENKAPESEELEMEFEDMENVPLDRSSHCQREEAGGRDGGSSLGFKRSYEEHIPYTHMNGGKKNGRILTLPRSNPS
T1 sequence (P06213 763-1382 partner limits assumed): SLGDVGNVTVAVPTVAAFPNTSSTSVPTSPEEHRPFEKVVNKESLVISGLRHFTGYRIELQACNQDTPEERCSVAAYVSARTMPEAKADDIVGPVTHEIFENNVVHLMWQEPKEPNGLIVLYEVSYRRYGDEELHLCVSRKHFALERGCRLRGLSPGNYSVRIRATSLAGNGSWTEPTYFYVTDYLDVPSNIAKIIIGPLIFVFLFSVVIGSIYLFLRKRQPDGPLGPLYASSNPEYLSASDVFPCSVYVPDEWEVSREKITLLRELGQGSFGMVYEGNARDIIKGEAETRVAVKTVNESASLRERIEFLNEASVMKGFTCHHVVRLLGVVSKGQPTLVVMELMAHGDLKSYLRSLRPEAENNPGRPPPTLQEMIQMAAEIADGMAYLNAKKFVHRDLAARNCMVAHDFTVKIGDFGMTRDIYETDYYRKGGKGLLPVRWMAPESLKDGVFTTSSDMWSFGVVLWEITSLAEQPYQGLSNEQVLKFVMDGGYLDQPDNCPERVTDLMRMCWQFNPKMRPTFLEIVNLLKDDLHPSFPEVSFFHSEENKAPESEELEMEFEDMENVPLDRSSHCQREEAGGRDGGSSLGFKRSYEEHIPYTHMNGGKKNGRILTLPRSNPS
Experimental: The binding curve of each analog was determined in duplicate, and the final dissociation constant (K d) was calculated from at least three binding curves.

IR [1] = conditions: cited from earlier work
Description: (§1) Scientific teams from Novo Nordisk A/S and Antyra, Inc., used the technique of expressing libraries of peptide sequences on the surface of bacteriophage and, by testing their binding affinities, discovered a number of peptides that bound very efficiently to IR while activating or inhibiting it.[19], [20]

[2] = tested on: insulin effect on plasma glucose; conditions: cited from earlier work
Description: as §1, with “[20] […] One of these peptides was […] or S592, which bound only to bindi ...” for “[20]”

[3] = tested on: insulin‐stimulated lipogenesis in cells; conditions: cited from earlier work
Description: as §1, with “[20] […] One of these peptides was […] or S592, which bound only to bindi ...” for “[20]”

IR [4] = conditions: cited from earlier work; for agonistic or antagonistic activities: peptides tested separately

Compound: CC[C@H](C)[C@H](NC(=O)[C@H](CCC(N)=O)NC(=O)[C@H](C)NC(=O)[C@H](Cc1c[nH]c2ccccc12)NC(=O)[C@H](CCC(=O)O)NC(=O)[C@H](CCC(=O)O)NC(=O)[C@H](CCC(=O)O)NC(=O)[C@H](CC(C)C)NC(=O)[C@@H](N)CO)C(=O)N[C@@H](CCC(=O)O)C(=O)N[C@H]1CSSC[C@@H](C(=O)N2CCC[C@H]2C(=O)N[C@@H](CO)C(N)=O)NC(=O)CNC(=O)[C@H](CCCNC(=N)N)NC(=O)CNC(=O)[C@H](Cc2c[nH]c3ccccc23)NC(=O)[C@H](C(C)C)NC(=O)[C@H](CCC(=O)O)NC1=O [peptide 1] (H-SLEEEWAQIECEVWGRGCPS-NH2; disulfide 11-18)
- Kd (IR‐A): 3.9 ± 1 nM

Compound: CC[C@H](C)[C@H](NC(=O)[C@H](CCC(N)=O)NC(=O)[C@H](C)NC(=O)[C@H](Cc1c[nH]c2ccccc12)NC(=O)[C@H](CCC(=O)O)NC(=O)[C@H](CCC(=O)O)NC(=O)[C@H](CCC(=O)O)NC(=O)[C@H](CC(C)C)NC(=O)[C@@H](N)CO)C(=O)N[C@@H](CCC(=O)O)C(=O)N[C@@]1(C)CCCC=CCCC[C@@](C)(C(=O)N2CCC[C@H]2C(=O)N[C@@H](CO)C(N)=O)NC(=O)CNC(=O)[C@H](CCCNC(=N)N)NC(=O)CNC(=O)[C@H](Cc2c[nH]c3ccccc23)NC(=O)[C@H](C(C)C)NC(=O)[C@H](CCC(=O)O)NC1=O [peptide 2] (H-SLEEEWAQIE[S5]EVWGRG[S5]PS-NH2; staple 11-18)
- Kd (IR‐A): 49 ± 6 nM

Compound: CC[C@H](C)[C@H](NC(=O)[C@H](CCC(N)=O)NC(=O)[C@H](C)NC(=O)[C@H](Cc1c[nH]c2ccccc12)NC(=O)[C@H](CCC(=O)O)NC(=O)[C@H](CCC(=O)O)NC(=O)[C@H](CCC(=O)O)NC(=O)[C@H](CC(C)C)NC(=O)[C@@H](N)CO)C(=O)N[C@@H](CCC(=O)O)C(=O)N[C@H]1CCCn2cc(nn2)C[C@@H](C(=O)N2CCC[C@H]2C(=O)N[C@@H](CO)C(N)=O)NC(=O)CNC(=O)[C@H](CCCNC(=N)N)NC(=O)CNC(=O)[C@H](Cc2c[nH]c3ccccc23)NC(=O)[C@H](C(C)C)NC(=O)[C@H](CCC(=O)O)NC1=O [peptide 3] (H-SLEEEWAQIE[Orn(N3)]EVWGRG[Pra]PS-NH2; triazole 11-18)
- Kd (IR‐A): 15 ± 3 nM

Compound: CC[C@H](C)[C@H](NC(=O)[C@H](CCC(N)=O)NC(=O)[C@H](C)NC(=O)[C@H](Cc1c[nH]c2ccccc12)NC(=O)[C@H](CCC(=O)O)NC(=O)[C@H](CCC(=O)O)NC(=O)[C@H](CCC(=O)O)NC(=O)[C@H](CC(C)C)NC(=O)[C@@H](N)CO)C(=O)N[C@@H](CCC(=O)O)C(=O)N[C@H]1CSCCn2cc(nn2)CSC[C@@H](C(=O)N2CCC[C@H]2C(=O)N[C@@H](CO)C(N)=O)NC(=O)CNC(=O)[C@H](CCCNC(=N)N)NC(=O)CNC(=O)[C@H](Cc2c[nH]c3ccccc23)NC(=O)[C@H](C(C)C)NC(=O)[C@H](CCC(=O)O)NC1=O [peptide 4] (H-SLEEEWAQIECEVWGRGCPS-NH2; linker 11-18 via X1)
- Kd (IR‐A): 25 ± 7 nM

Compound: CC[C@H](C)[C@H](NC(=O)[C@H](CCC(N)=O)NC(=O)[C@H](C)NC(=O)[C@H](Cc1c[nH]c2ccccc12)NC(=O)[C@H](CCC(=O)O)NC(=O)[C@H](CCC(=O)O)NC(=O)[C@H](CCC(=O)O)NC(=O)[C@H](CC(C)C)NC(=O)[C@@H](N)CO)C(=O)N[C@@H](CCC(=O)O)C(=O)N[C@H]1CSCCn2cc(nn2)COC[C@@H](C(=O)N2CCC[C@H]2C(=O)N[C@@H](CO)C(N)=O)NC(=O)CNC(=O)[C@H](CCCNC(=N)N)NC(=O)CNC(=O)[C@H](Cc2c[nH]c3ccccc23)NC(=O)[C@H](C(C)C)NC(=O)[C@H](CCC(=O)O)NC1=O [peptide 5] (H-SLEEEWAQIECEVWGRGSPS-NH2; linker 11-18 via X1)
- Kd (IR‐A): 75 ± 29 nM

Compound: #SLEEEWAQIE C EVYGR C PPSES‐amide (disulfide) [IM172N22, peptide representing the Site 2 part of IM459]
- Kd (IR [1]; read-out: binding affinity): 3.1 nM

Compound: #SLEQEWaKIE C EVYGK C PPKKAyKWFERQLK‐amide (disulfide) [IM459, variant of S519 with several modifications, IR agonist]
- ability to activate IR (IR [1]): retains the ability to activate IR (agonist)

Compound: GSLDESFYDWFERQLGGGSGGSSLEEEWAQIQ C EVWGRG C PSY (disulfide) [S961, Site 1–linker–Site 2 fusion peptide with free C-terminus, IR antagonist]
- inhibition of the insulin effect on plasma glucose in mice [2]: fully inhibit
- inhibition of insulin‐stimulated lipogenesis in cells [3]: fully inhibit
- binding affinities for IR (IR [1]): native insulin‐like binding affinities

Compound: GSLDESFYDWFERQLGGGSGGSSLEEEWAQIQ C EVWGRG C PSY‐amide (disulfide) [S661, Site 1–linker–Site 2 fusion peptide with amidated C-terminus, IR antagonist]
- inhibition of the insulin effect on plasma glucose in mice [2]: fully inhibit
- inhibition of insulin‐stimulated lipogenesis in cells [3]: fully inhibit
- binding affinities for IR (IR [1]): native insulin‐like binding affinities

Compound: GSLDESFYDWFERQLGGGSGGSSLEEEWAQIQSEVWGRGSPSY-NH2 [Cys → Ser in S661, S661 variant with cysteines mutated to serines, without the disulfide bridge]
- change of antagonistic activity versus S661 (IR [4]; inhibition of insulin-stimulated IR phosphorylation in cells): eightfold decrease

Compound: GSLDESFYDWFERQLGKK [S371]
- agonistic or antagonistic activities (IR [4]): did not detect any agonistic or antagonistic activities

Compound: SLEEEWAQ-NH2 [N-terminal segment peptide of the Site 2 mimetics, without the cyclized part]
- Kd (IR [1]; read-out: binding affinity): 900 nM

Compound: SLEEEWAQIE C EVWGRG C PSY (disulfide) [S592]
- activation of the receptor (IR [1]): does not activate the receptor
- Kd (IR [1]; read-out: K d for binding to the IR): 1.7 nM

Compound: SLEEEWAQIQSEVWGRGSPSYC [Cys → Ser in S592, Site 2 peptide with Cys-to-Ser mutations produced by Brandt et al]
- insulin signal remaining (IR [4]; 1 nM insulin, peptide at the concentration 100 nM): 50–60%
- agonistic or antagonistic activities (IR [4]): did not detect any agonistic or antagonistic activities

Compound: SLEEEWAQVE C EVYGRG C PSGSLDESFYDWFERQLG (disulfide) [S519, Site 2–Site 1 fusion peptide, IR agonist]
- agonism / antagonism of IR (IR [1]): did not show antagonistic effects and instead agonized IR
- binding to IR (IR [1]): very high affinity
